# Literature values as cited in patent US20040204435A1, “Alternating treatment with topoisomerase I and topoisomerase II inhibitors” (priority 2003, published 2004).
# What was measured:
# [1] = system: human tumor xenografts
# [2] = for clinical effectiveness: cancer patients
# [3] = mouse plasma
# [4] = humans, plasma
# [5] = carboxylate versus CPT (lactone)
# [6] = not given; remark: listed apart in the source
SMILES,effect on human tumor xenografts in nude mice [1],clinical effectiveness [2],solubility in water,further results
CC[C@@]1(O)C(=O)OCc2c1cc1n(c2=O)Cc2cc3c(N)cccc3nc2-1 [9-aminocamptothecin],completely eradicate,insufficiently effective,,
"CC[C@@]1(O)C(=O)OCc2c1cc1n(c2=O)Cc2cc3c([N+](=O)[O-])cccc3nc2-1 [9NC, 9-nitrocamptothecin]",completely eradicate,less effective against human pancreas tumors in humans than against human cancer xenografts in nude mice,,administered dose circulating as active lactone form [3]: Up to 50%; drug circulating as lactone [4]: 2-5%
CCC(O)(C(=O)O)c1cc2n(c(=O)c1CO)Cc1cc3ccccc3nc1-2 (stereo not shown) [CPT carboxylate],,,soluble,anticancer activity relative to CPT [5]: ~10%
CC[C@@]1(O)C(=O)OCc2c1cc1n(c2=O)Cc2cc3ccccc3nc2-1 [CPT lactone],,,insoluble,
"CC[C@@]1(O)C(=O)OCc2c1cc1n(c2=O)Cc2cc3ccccc3nc2-1 [CPT, Camptothecin]",completely eradicate,much less effective in cancer patients than in mice,,dose-limiting toxicity ([2]; clinical trials (9NC: phase I-II)): diarrhea
"CCc1c2c(nc3ccc(OC(=O)N4CCC(N5CCCCC5)CC4)cc13)-c1cc3c(c(=O)n1C2)COC(=O)[C@]3(O)CC [Camptosar, irinotecan]",,,water soluble,
CC[C@@]1(O)C(=O)OCc2c1cc1n(c2=O)Cc2cc3c(CN(C)C)c(O)ccc3nc2-1 [Topotecan],,,water soluble,
CC[C@@](O)(C(=O)[O-])c1cc2n(c(=O)c1CO)Cc1cc3ccccc3nc1-2.[Na+] [sodium salt of CPT],,,,"toxicities ([6]; in vivo): myelosuppression, diarrhea and cystitis; clinical benefit ([6]; phase I and II trials 1970-1972): no clinical benefit"
